Reference: publication PMC11605156, “Triterpenoids from Ganoderma lucidum inhibit cytochrome P450 enzymes interfering with the metabolic process of specific clinical drugs” (Frontiers in Pharmacology, 2024)

Tests used:
in vivo = conditions: rat
Experimental: SD rats (Male, weighing 220 g ± 20 g) were divided into a dichloromethane administration group and a control group with 6 rats in each group. Both groups were given probe substrate drugs by gavage. […] 200 μL blood samples were taken from the rat jugular vein at 0.167, 0.333, 0.5, 0.75, 1, 2, 3, 4, 6, 8, 10, and 12 h after the administration of the probe substrate. After precipitation of proteins by with 600 μL acetonitrile via centrifugation […] at 4°C at 3,500 rpm for 10 min. The supernatant was detected using liquid chromatography-tandem mass spectrometry (LC-MS/MS). The mass spectrometry information of the probe drug is shown in Supplementary Table S3. Animal experiments in this study were approved by the Animal Ethics Committee of the Dalian Medical University.

CYP2A6 = molecular target: T1, CYP2A6 (Homo sapiens, UniProt P11509); test: CYP2A6 inhibition, coumarin probe in human liver microsomes; conditions: for activity at 30 min: human, human liver microsomes, pH 7.4, probe coumarin 2 μM, Residual activity (%) CYP2A6, HLM 0.5 mg/mL
T1 sequence (P11509 1-494): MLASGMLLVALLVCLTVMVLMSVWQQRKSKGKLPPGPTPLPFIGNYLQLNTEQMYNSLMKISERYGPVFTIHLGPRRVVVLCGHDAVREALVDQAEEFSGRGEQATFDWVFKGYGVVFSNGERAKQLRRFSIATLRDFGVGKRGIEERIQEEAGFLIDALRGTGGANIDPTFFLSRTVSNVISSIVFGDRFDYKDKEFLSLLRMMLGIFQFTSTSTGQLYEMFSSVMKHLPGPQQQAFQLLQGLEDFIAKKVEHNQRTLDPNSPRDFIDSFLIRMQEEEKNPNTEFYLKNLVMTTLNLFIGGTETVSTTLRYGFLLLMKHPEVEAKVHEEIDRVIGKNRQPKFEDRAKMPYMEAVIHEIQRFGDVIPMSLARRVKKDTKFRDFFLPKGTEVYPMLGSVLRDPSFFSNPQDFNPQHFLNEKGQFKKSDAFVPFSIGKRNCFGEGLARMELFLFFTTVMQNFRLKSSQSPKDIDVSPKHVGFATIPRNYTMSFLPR
Experimental: (§1) The total volume of the in vitro metabolic incubation system is 200 μL. The probe substrate concentration in the system is shown in Supplementary Table S1. […] The reaction sample was preheated in a constant temperature mixer at 37°C. Then NADP^+ was added to the system to initiate the reaction. The reaction time is 30 min, and 100 μL acetonitrile will be added on time to quickly terminate the reaction, followed by centrifugation at 4°C and 20,000 g for 20 min. The supernatant was analyzed using liquid chromatography tandem mass spectrometry (LC-MS/MS), and the activity of CYP enzymes was evaluated by the generation of probe metabolites. The mass spectrometry information of probe substrates is shown in Supplementary Table S3.
(§2) The isolated triterpenoids (1–66) were used to establish a compounds library. The inhibitory effects of 66 triterpenoids from G. lucidum on seven subtypes of CYP enzymes (CYP1A2, 2A6, 2D6, 2B6, 2C9, 2C19, 3A4) were evaluated followed the above-mentioned experimental procedures.
(§3) Table S1. The information of probes for CYPs activity assay

CYP2C9 = CYP2C9 (Homo sapiens, UniProt P11712); test: CYP2C9 inhibition, probe/drug metabolism in human liver microsomes; conditions: diclofenac 4 μM, 30 min; for activity at 30 min: human, human liver microsomes, pH 7.4, probe diclofenac 4 μM, Residual activity (%) CYP2C9, HLM 0.5 mg/mL
Experimental: as §1, §2
(§4) For 16 clinical drugs metabolized by CYP enzymes, potential DDI studies were conducted on triterpenoids (6, 25) of G. lucidum, and IC50 values were measured.
(§5) Clinical drugs: Phenacetin, melatonin, clozapine and riluzole are metabolized by CYP1A2. Bupropion, artemisinin, efavirenz and sertraline are metabolized by CYP2B6. Diclofenac, valsartan, glimepiride and glibenclamide are metabolized by CYP2C9. Midazolam, imatinib, simvastatin and diltiazem are metabolized by CYP3A4.
as §3
(§6) Table S2. Information of clinical drugs

CYP1A2 = molecular target: T2, CYP1A2 (Homo sapiens, UniProt P05177); test: CYP1A2 inhibition, probe/drug metabolism in human liver microsomes (LC-MS/MS); conditions: for activity at 30 min: Residual activity (%) CYP1A2, HLM 0.5 mg/mL; for activity at 30 min / Residual activity (%) CYP1A2: phenacetin 40 μM, 30 min; for Residual activity (%) CYP1A2: HLM 0.5 mg/mL
T2 sequence (P05177 1-516): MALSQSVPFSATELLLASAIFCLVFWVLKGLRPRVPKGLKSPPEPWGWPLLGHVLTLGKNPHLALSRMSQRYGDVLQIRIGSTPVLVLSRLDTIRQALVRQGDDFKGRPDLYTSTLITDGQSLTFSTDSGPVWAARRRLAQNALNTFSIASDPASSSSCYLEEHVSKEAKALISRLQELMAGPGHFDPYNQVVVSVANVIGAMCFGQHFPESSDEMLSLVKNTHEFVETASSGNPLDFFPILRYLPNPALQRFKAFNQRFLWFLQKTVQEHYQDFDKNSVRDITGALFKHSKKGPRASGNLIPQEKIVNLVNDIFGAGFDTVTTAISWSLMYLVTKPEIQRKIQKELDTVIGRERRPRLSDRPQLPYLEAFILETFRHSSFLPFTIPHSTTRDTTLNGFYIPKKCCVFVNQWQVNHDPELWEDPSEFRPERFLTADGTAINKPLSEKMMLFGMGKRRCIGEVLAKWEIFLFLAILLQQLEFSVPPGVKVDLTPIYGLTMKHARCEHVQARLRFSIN
Experimental: as §1, §2, §4, §5, §3, §6

CYP2D6 = CYP2D6 (Homo sapiens, UniProt P10635); test: CYP2D6 inhibition, dextromethorphan probe in human liver microsomes; conditions: for activity at 30 min: human, human liver microsomes, pH 7.4, probe dextromethorphan 5 μM, Residual activity (%) CYP2D6, HLM 0.5 mg/mL; for Residual activity (%) CYP2D6: HLM 0.5 mg/mL, dextromethorphan 5 μM, 30 min
Experimental: as §1, §2, §3

CYP2B6 = molecular target: T3, CYP2B6 (Homo sapiens, UniProt P20813); test: CYP2B6 inhibition, probe/drug metabolism in human liver microsomes; conditions: bupropion 75 μM, 30 min; for activity at 30 min: human, human liver microsomes, pH 7.4, probe bupropion 75 μM, Residual activity (%) CYP2B6, HLM 0.5 mg/mL
T3 sequence (P20813 1-491): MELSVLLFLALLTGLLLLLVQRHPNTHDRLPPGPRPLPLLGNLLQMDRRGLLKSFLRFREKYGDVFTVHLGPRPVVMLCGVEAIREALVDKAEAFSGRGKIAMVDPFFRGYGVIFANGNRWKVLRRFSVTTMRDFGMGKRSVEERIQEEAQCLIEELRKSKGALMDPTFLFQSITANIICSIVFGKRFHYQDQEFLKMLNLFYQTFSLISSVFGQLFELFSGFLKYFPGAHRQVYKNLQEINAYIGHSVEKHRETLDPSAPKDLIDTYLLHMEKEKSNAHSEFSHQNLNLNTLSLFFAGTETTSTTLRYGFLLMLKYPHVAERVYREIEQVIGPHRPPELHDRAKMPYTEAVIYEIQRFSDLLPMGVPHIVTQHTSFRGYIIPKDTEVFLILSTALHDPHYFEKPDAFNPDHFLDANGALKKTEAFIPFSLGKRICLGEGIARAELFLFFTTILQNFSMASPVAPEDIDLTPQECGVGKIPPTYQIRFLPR
Experimental: as §1, §2, §4, §5, §3, §6

CYP2C19 = CYP2C19 (Homo sapiens, UniProt P33261); test: CYP2C19 inhibition, S-mephenytoin probe in human liver microsomes; conditions: S-mephenytoin 50 μM, 30 min; for activity at 30 min: human, human liver microsomes, pH 7.4, probe S-mephenytoin 50 μM, Residual activity (%) CYP2C19, HLM 0.5 mg/mL
Experimental: as §1, §2, §3

CYP3A4 = CYP3A4 (Homo sapiens, UniProt P08684); test: CYP3A4 inhibition, probe/drug metabolism in human liver microsomes; conditions: human, human liver microsomes, pH 7.4, probe midazolam 5 μM, Residual activity (%) CYP3A4, HLM 0.5 mg/mL, midazolam 5 μM, 30 min
Experimental: as §1, §2, §4, §5, §3, §6

[1] = IC50 against CYP 1A2, substrate phenacetin 40 μM, HLM
[2] = human, human liver microsomes, pH 7.4, probe phenacetin 40 μM
[3] = gavage, drug alone (control group), n = 6

Chain of CYP3A4 (P08684 whole entry): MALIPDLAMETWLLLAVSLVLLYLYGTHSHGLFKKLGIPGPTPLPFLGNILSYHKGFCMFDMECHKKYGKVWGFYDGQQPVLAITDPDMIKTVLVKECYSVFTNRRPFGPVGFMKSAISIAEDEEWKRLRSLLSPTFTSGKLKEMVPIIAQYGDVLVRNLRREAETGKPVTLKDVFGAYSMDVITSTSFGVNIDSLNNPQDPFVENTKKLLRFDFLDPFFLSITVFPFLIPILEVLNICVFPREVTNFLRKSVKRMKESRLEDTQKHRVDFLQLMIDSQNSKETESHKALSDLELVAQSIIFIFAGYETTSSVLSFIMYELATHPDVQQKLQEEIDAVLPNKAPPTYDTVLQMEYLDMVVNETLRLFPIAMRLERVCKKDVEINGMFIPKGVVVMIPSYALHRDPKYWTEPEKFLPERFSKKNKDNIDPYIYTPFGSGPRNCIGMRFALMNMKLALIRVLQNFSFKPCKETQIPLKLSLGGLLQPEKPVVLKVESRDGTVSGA
Chain of CYP2C9 (P11712 whole entry): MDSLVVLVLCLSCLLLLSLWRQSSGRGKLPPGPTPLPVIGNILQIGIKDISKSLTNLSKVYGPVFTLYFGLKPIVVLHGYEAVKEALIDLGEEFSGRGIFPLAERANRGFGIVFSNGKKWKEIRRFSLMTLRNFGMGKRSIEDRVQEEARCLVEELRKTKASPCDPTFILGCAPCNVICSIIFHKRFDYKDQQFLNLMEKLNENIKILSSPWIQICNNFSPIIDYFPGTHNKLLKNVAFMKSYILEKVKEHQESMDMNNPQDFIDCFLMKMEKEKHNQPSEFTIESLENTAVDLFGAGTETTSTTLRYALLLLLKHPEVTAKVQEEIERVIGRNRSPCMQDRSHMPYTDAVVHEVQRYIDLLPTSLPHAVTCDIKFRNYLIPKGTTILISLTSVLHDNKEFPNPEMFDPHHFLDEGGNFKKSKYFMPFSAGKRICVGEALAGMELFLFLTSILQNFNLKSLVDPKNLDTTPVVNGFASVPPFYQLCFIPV
Chain of CYP2D6 (P10635 whole entry): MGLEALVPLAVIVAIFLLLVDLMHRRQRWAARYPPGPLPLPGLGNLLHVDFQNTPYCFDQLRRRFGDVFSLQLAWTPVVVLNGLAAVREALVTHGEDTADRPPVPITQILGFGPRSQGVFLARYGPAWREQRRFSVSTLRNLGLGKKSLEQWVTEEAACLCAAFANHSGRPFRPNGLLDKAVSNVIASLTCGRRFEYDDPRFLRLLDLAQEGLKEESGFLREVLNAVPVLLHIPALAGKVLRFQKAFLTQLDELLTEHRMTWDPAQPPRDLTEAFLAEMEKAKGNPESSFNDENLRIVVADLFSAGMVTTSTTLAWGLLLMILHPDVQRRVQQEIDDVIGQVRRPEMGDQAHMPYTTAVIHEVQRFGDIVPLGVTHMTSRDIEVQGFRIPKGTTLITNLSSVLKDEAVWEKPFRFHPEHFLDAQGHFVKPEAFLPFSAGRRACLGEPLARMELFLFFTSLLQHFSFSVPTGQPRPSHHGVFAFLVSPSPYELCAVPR
Chain of CYP2C19 (P33261 whole entry): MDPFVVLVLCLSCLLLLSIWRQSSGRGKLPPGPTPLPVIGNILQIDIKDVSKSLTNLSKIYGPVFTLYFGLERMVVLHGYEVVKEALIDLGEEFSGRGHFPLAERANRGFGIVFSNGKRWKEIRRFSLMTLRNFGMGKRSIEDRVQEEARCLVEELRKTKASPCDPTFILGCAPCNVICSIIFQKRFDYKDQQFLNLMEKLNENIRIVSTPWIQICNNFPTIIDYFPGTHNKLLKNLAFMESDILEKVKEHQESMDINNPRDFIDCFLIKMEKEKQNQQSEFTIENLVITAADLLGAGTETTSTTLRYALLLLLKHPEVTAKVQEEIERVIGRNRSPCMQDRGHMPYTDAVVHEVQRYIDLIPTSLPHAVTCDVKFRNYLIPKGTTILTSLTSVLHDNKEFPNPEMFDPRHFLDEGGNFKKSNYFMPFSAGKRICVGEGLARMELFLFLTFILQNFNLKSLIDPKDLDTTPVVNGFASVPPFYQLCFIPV

SMILES | AUM (in vivo; male, SD, in vivo) | Cl_F_ (in vivo; male, SD, in vivo) | AUC(0-inf) (in vivo; male, SD, in vivo, po) [ng·h/mL] | AUC(0-t) (in vivo; male, SD, in vivo, po) [ng·h/mL] | Cmax (in vivo; male, SD, in vivo, po) [ng/mL] | Tmax (in vivo; male, SD, in vivo, po) [min] | Vz_F (in vivo; male, SD, in vivo, po) | activity at 30 min (CYP2A6) [%] | activity at 30 min (CYP2C9) [%] | IC50 (CYP1A2; [1]) [µM] | activity at 30 min (CYP1A2; [2]) [%] | activity at 30 min (CYP2D6) [%] | activity at 30 min (CYP2B6) [%] | activity at 30 min (CYP2C19) [%] | activity at 30 min (CYP3A4) [%] | also measured
CC(NC(C)(C)C)C(=O)c1cccc(Cl)c1 (stereo not drawn) [Bup, bupropion] | 15,378.075 ± 3,089.500 h*ng/mL | 3,954.386 ± 375.228 mL/h/kg | 5090 | 4950 | 1890 ± 154 | 25 ± 7.74 | 10,405.594 ± 1,602.189 mL/kg |  |  |  |  |  |  |  |  | 
CC(=CC(=O)CC(C)C(=O)O)C1CC(=O)C2(C)C3=C(C(=O)CC12C)C1(C)CCC(=O)C(C)(CO)C1CC3O (stereo not drawn) [Compound 1] |  |  |  |  |  |  |  | 79.5 ± 3.07 | 91.82 ± 0.87 | 10.1 ± 0.23 | 29.1 ± 1.9 | 82.4 ± 1.5 | 86.9 ± 5.76 | 65 ± 6 | 84.3 ± 7.26 | 
CC(CC(=O)CC(C)C1CC(=O)C2(C)C3=C(C(=O)CC12C)C1(C)CCC(O)C(C)(CO)C1CC3O)C(=O)O (stereo not drawn) [Compound 2] |  |  |  |  |  |  |  | 78.38 ± 0.16 | 87.1 ± 3.47 | 16 ± 4.05 | 35.4 ± 3.33 | 79.7 ± 8.99 | 79.86 ± 0.32 | 62.77 ± 0.26 | 79.6 ± 5.54 | 
CC(CC(=O)CC(C)C1CC(=O)C2(C)C3=C(C(=O)C(O)C12C)C1(C)CCC(=O)C(C)(CO)C1CC3O)C(=O)O (stereo not drawn) [Compound 3] |  |  |  |  |  |  |  | 79.9 ± 0.97 | 87.3 ± 6.36 | 14 ± 1.73 | 33 ± 4.08 | 76.5 ± 4.49 | 75.3 ± 4.16 | 63.6 ± 7.83 | 60.3 ± 3.06 | 
CC(CC(=O)CC(C)C1CC(O)C2(C)C3=C(C(=O)CC12C)C1(C)CCC(=O)C(C)(C)C1CC3=O)C(=O)O (stereo not drawn) [Compound 45] |  |  |  |  |  |  |  | 90.1 ± 2.87 | 73.5 ± 6.44 | 18.2 ± 1.33 | 48.2 ± 4.71 | 93.7 ± 8.49 | 83 ± 3.05 | 70.3 ± 4.05 |  | 
CC(CC(=O)CC(C)C1CC(=O)C2(C)C3=C(C(=O)CC12C)C1(C)CCC(O)C(C)(C)C1CC3=O)C(=O)O (stereo not drawn) [Compound 54] |  |  |  |  |  |  |  | 82.6 ± 2.79 | 88.45 ± 0.51 |  |  |  | 84.1 ± 1.32 | 88.3 ± 3.63 |  | Residual activity (%) CYP1A2 (CYP1A2): 47.09±3.09%; IC50 at 30 min (CYP1A2; human, human liver microsomes, pH 7.4, probe phenacetin 40 μM, IC50 against CYP 1A2, substrate phenacetin 40 μM, HLM): 24.7 ± 3.38 µM; Residual activity (%) CYP2D6 (CYP2D6): 108.69±3.90%
CC(CC(=O)CC(C)C1CC(=O)C2(C)C3=C(C(=O)CC12C)C1(C)CCC(O)C(C)(C)C1CC3=O)C(=O)O (stereo not drawn) [Compound 55] |  |  |  |  |  |  |  |  |  |  |  |  |  |  |  | Residual activity (%) CYP2A6 (CYP2A6; HLM 0.5 mg/mL, coumarin 2 μM, 30 min): 74.81±0.70%; Residual activity (%) CYP2C9 (CYP2C9; HLM 0.5 mg/mL): 96.25±6.96%; Residual activity (%) CYP1A2 (CYP1A2): 71.10±3.67%; Residual activity (%) CYP2D6 (CYP2D6): 86.79±5.16%; Residual activity (%) CYP2B6 (CYP2B6; HLM 0.5 mg/mL): 77.81±6.09%; Residual activity (%) CYP2C19 (CYP2C19; HLM 0.5 mg/mL): 104.32±8.04%
O=C(O)Cc1ccccc1Nc1c(Cl)cccc1Cl [Dic, diclofenac] | 7,332.465 ± 1,560.101 h*ng/mL | 4,276.363 ± 388.068 mL/h/kg | 2350 | 2270 | 912 ± 68.1 | 17.5 ± 6.12 | 12,244.920 ± 1707.693 mL/kg |  |  |  |  |  |  |  |  | 
Cc1ncc2n1-c1ccc(Cl)cc1C(c1ccccc1F)=NC2 [MDZ, midazolam] |  |  | 2340 | 2300 | 1630 | 40 ± 7.74 |  |  |  |  |  |  |  |  |  | AUM (in vivo; [3]): 4,197.381 ± 670.735 h*ng/mL; Cl_F_ (in vivo; [3]): 4,313.217 ± 497.661 mL/h/kg; Vz_F (in vivo; [3]): 8,995.776 ± 2,395.823 mL/kg
CCOc1ccc(NC(C)=O)cc1 [PHE, Phenacetin] | 692.744 ± 85.4782 ng·h/mL | 14,264.696 ± 912.942 mL/h/kg | 352 ± 22.6 | 342 ± 22.6 | 364 ± 38.1 | 37.5 ± 8.22 | 31,514.554 ± 6,298.860 mL/kg |  |  |  |  |  |  |  |  | 
